In ChEMBL document CHEMBL2331255, “Carbonic anhydrase inhibitors: benzenesulfonamides incorporating cyanoacrylamide moieties are low nanomolar/subnanomolar inhibitors of the tumor-associated isoforms IX and XII” (Bioorg Med Chem, 2013) one finds Ki data, which are given here for 20 compounds.

One assay concerns the target Carbonic anhydrase 1 (Homo sapiens, UniProt P00915). The assay is described as follows: Inhibition of human carbonic anhydrase 1 preincubated for 15 mins by CO2 hydration stopped-flow assay.
The target of a further assay is Carbonic anhydrase 9 (Homo sapiens, UniProt Q16790). Nature of the assay: Inhibition of human carbonic anhydrase 9 preincubated for 15 mins by CO2 hydration stopped-flow assay.
Another assay deals with Carbonic anhydrase 2 (Homo sapiens, UniProt P00918). Nature of the assay: Inhibition of human carbonic anhydrase 2 preincubated for 15 mins by CO2 hydration stopped-flow assay.
Another assay addresses Carbonic anhydrase 12 (Homo sapiens, UniProt O43570). The assay is described as follows: Inhibition of human carbonic anhydrase 12 preincubated for 15 mins by CO2 hydration stopped-flow assay.

Each structure is given as a SMILES string. pKi: −log10 of the molar value.

Sequence of Carbonic anhydrase 1 (P00915 whole entry): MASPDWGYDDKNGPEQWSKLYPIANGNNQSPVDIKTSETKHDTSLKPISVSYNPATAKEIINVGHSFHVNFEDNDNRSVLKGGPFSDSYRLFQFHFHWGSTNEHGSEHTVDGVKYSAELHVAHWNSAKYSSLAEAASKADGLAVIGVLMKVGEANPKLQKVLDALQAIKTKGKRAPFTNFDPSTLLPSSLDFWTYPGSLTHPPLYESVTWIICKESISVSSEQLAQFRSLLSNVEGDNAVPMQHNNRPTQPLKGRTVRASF
Sequence of Carbonic anhydrase 12 (O43570 whole entry): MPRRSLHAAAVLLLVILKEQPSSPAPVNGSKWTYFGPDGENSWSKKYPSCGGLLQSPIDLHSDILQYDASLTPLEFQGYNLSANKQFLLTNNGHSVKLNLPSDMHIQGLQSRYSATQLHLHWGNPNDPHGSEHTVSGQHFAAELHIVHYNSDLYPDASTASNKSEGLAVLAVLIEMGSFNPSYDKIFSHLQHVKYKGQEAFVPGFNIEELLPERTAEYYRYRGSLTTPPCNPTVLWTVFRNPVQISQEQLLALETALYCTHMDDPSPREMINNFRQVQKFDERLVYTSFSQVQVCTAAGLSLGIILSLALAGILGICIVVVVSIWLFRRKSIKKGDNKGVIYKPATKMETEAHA

For orientation: pKi means the negative decadic logarithm of the Ki, by convention in mol/L. A high value points to a low Ki. Consider `N#C/C(=C\c1ccco1)C(=O)Nc1ccc(S(N)(=O)=O)cc1`, for which the pKi on Carbonic anhydrase 1 is 8.21; at Carbonic anhydrase 9, 8.37; at Carbonic anhydrase 2, 8.26; at Carbonic anhydrase 12 it was 8.20.

On Carbonic anhydrase 9, `N#C/C(=N\Nc1ccccc1)C(=O)Nc1ccc(S(N)(=O)=O)cc1` gave a pKi of 8.02. Same read-out and setting: in the case of `N#C/C(=C\c1ccc(O)c(O)c1)C(=O)Nc1ccc(S(N)(=O)=O)cc1` it was 9.19. Still for that read-out and setting: for `N#C/C(=C\c1ccc([N+](=O)[O-])cc1)C(=O)Nc1ccc(S(N)(=O)=O)cc1` the value was 9.03. On the same count and under the same terms, in the case of `CN(C)c1ccc(/C=C(\C#N)C(=O)Nc2ccc(S(N)(=O)=O)cc2)cc1` it was 8.47; in that of `N#C/C(=C\C=C\c1ccccc1)C(=O)Nc1ccc(S(N)(=O)=O)cc1`, 8.31; in that of `N=c1oc2ccccc2cc1C(=O)Nc1ccc(S(N)(=O)=O)cc1`, 7.89. In turn, `N#C/C(=C\c1ccc(O)cc1)C(=O)Nc1ccc(S(N)(=O)=O)cc1` showed a pKi at Carbonic anhydrase 9 of 9.17. The same measure, in the same setting: in the case of `COc1ccc(/C=C(\C#N)C(=O)Nc2ccc(S(N)(=O)=O)cc2)cc1` it was 9.07.

As for `CC(=O)C1=NN(c2ccccc2)/C(=C(\C#N)C(=O)Nc2ccc(S(N)(=O)=O)cc2)S1`, at Carbonic anhydrase 9, the pKi was 9.48.

Consider `COc1ccc(/C=C(\C#N)C(=O)Nc2ccc(S(N)(=O)=O)cc2)cc1OC`, for which, at Carbonic anhydrase 9, the pKi is 7.67. Same read-out and setting: for `COc1cc(OC)c(OC)cc1/C=C(\C#N)C(=O)Nc1ccc(S(N)(=O)=O)cc1` the value was 9.02; for `N#C/C(C(=O)Nc1ccc(S(N)(=O)=O)cc1)=C(\S)Nc1ccccc1`, 8.24. With `COc1ccccc1/C=C(\C#N)C(=O)Nc1ccc(S(N)(=O)=O)cc1`, the pKi was 7.15 on Carbonic anhydrase 1, 7.49 on Carbonic anhydrase 9, 8.16 on Carbonic anhydrase 2 and 9.22 at Carbonic anhydrase 12.

In turn, `N#C/C(=C\c1ccc(Cl)cc1Cl)C(=O)Nc1ccc(S(N)(=O)=O)cc1` had a pKi at Carbonic anhydrase 9 of 7.45. Still for that read-out and setting: in the case of `N#C/C(=C\c1cccs1)C(=O)Nc1ccc(S(N)(=O)=O)cc1` it was 8.43; in that of `N#C/C(=C\c1ccccc1Cl)C(=O)Nc1ccc(S(N)(=O)=O)cc1`, 8.05; in that of `COc1cc(/C=C(\C#N)C(=O)Nc2ccc(S(N)(=O)=O)cc2)cc(OC)c1OC`, 7.69. `COc1cc(/C=C(\C#N)C(=O)Nc2ccc(S(N)(=O)=O)cc2)ccc1O`: the pKi at Carbonic anhydrase 9 was 8.27. Compared with the last compound, the pKi is 0.58 log units higher. For `N#CCC(=O)Nc1ccc(S(N)(=O)=O)cc1`, the pKi at Carbonic anhydrase 9 was 8.28. This pKi and that of the compound before are within 0.2 log units of each other.
